From ChEMBL document CHEMBL1201861, “Genomics of Drug Sensitity in Cancer screening data, Wellcome Trust Sanger Institute”

Tests used:
Assay in all cases: cells
DSH1 = format: functional, cell-based; settings: Homo sapiens;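 note: growth inhibition of human DSH1 cells, measured with a cell viability readout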
Description: SANGER: Inhibition of human DSH1 cell growth in a cell viability assay.

ES1 = format: functional, cell-based, Homo sapiens; settings: Homo sapiens, ES1
Description: SANGER: Inhibition of human ES1 cell growth in a cell viability assay.

ES3 = format: functional, cell-based, Homo sapiens; settings: Homo sapiens, ES3;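 note: growth inhibition of ES3 cells, read out with a cell viability assay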
Description: SANGER: Inhibition of human ES3 cell growth in a cell viability assay.

EW-18 = format: functional, cell-based, Homo sapiens; settings: Homo sapiens, EW-18; read-out: IC50;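 note: growth inhibition of EW-18 cells, read out by a cell viability assay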
Description: SANGER: Inhibition of human EW-18 cell growth in a cell viability assay.

EOL1 = format: functional, cell-based, Homo sapiens; settings: Homo sapiens, EOL1;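 note: growth inhibition of EoL-1 cells, read out by a cell viability assay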
Description: SANGER: Inhibition of human EoL-1-cell cell growth in a cell viability assay.

GI-1 = format: functional, cell-based, Homo sapiens; settings: Homo sapiens, GI-1;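 note: growth inhibition of human GI-1 cells, measured with a cell viability readout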
Description: SANGER: Inhibition of human GI-1 cell growth in a cell viability assay.

HAL-01 = format: functional, cell-based, Homo sapiens; settings: Homo sapiens, HAL-01;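 note: growth inhibition of human HAL-01 cells, read out with a cell viability assay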
Description: SANGER: Inhibition of human HAL-01 cell growth in a cell viability assay.

HD-MY-Z = format: functional, cell-based, Homo sapiens; settings: Homo sapiens, HD-MY-Z;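 note: growth inhibition of HD-MY-Z cells, read out with a cell viability assay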
Description: SANGER: Inhibition of human HD-MY-Z cell growth in a cell viability assay.

IA-LM = format: functional, cell-based; settings: Homo sapiens;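 note: cell viability assay measuring growth inhibition of human IA-LM cells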
Description: SANGER: Inhibition of human IA-LM cell growth in a cell viability assay.

IST-MES1 = format: functional, cell-based, Homo sapiens; settings: Homo sapiens, IST-MES1;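 note: growth inhibition of IST-MES1 cells, measured with a cell viability assay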
Description: SANGER: Inhibition of human IST-MES1 cell growth in a cell viability assay.

JAR = format: functional, cell-based, Homo sapiens; settings: Homo sapiens, JAR;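 note: growth inhibition of human JAR cells determined with a cell viability assay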
Description: SANGER: Inhibition of human JAR cell growth in a cell viability assay.

KE-37 = format: functional, cell-based, Homo sapiens; settings: Homo sapiens, KE-37;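 note: growth inhibition of KE-37 cells, read out with a cell viability assay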
Description: SANGER: Inhibition of human KE-37 cell growth in a cell viability assay.

KG-1 = format: functional, cell-based, Homo sapiens; settings: Homo sapiens, KG-1;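 note: growth inhibition of KG-1 cells, read out by a cell viability assay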
Description: SANGER: Inhibition of human KG-1 cell growth in a cell viability assay.

KLE = format: functional, cell-based; settings: Homo sapiens;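 note: growth inhibition of human KLE cells, read out with a cell viability assay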
Description: SANGER: Inhibition of human KLE cell growth in a cell viability assay.

KM12 = format: functional, cell-based, Homo sapiens; settings: Homo sapiens, KM12;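 note: KM12 cell growth inhibition, read out with a cell viability assay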
Description: SANGER: Inhibition of human KM12 cell growth in a cell viability assay.

L-363 = format: functional, cell-based, Homo sapiens; settings: Homo sapiens, L-363
Description: SANGER: Inhibition of human L-363 cell growth in a cell viability assay.

LAMA-84 = format: functional, cell-based, Homo sapiens; settings: Homo sapiens, LAMA-84;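 note: growth inhibition of LAMA-84 cells, read out with a cell viability assay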
Description: SANGER: Inhibition of human LAMA-84 cell growth in a cell viability assay.

LOX IMVI = format: functional, cell-based, Homo sapiens; settings: Homo sapiens, LOX IMVI
Description: SANGER: Inhibition of human LOXIMVI cell growth in a cell viability assay.

LS-513 = format: functional, cell-based, Homo sapiens; settings: Homo sapiens, LS-513
Description: SANGER: Inhibition of human LS-513 cell growth in a cell viability assay.

Lu-65 = format: functional, cell-based, Homo sapiens; settings: Homo sapiens, Lu-65;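 note: growth inhibition of Lu-65 cancer cells, read out by a cell viability assay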
Description: SANGER: Inhibition of human LU-65 cell growth in a cell viability assay.

MFM-223 = format: functional, cell-based, Homo sapiens; settings: Homo sapiens, MFM-223
Description: SANGER: Inhibition of human MFM-223 cell growth in a cell viability assay.

MLMA = format: functional, cell-based, Homo sapiens; settings: Homo sapiens, MLMA;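 note: growth inhibition of MLMA cells (human), determined through a cell viability readout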
Description: SANGER: Inhibition of human MLMA cell growth in a cell viability assay.

MOLT-4 = format: functional, cell-based, Homo sapiens; settings: Homo sapiens, MOLT-4;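 note: growth inhibition of MOLT-4 cells, determined with a cell viability readout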
Description: SANGER: Inhibition of human MOLT-4 cell growth in a cell viability assay.

MPP-89 = format: functional, cell-based, Homo sapiens; settings: Homo sapiens, MPP-89;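 note: growth inhibition of human MPP-89 cells, read out with a cell viability assay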
Description: SANGER: Inhibition of human MPP-89 cell growth in a cell viability assay.

MZ7-mel = format: functional, cell-based, Homo sapiens; settings: Homo sapiens, MZ7-mel;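 note: growth inhibition of human MZ7-mel cells, measured by a cell viability assay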
Description: SANGER: Inhibition of human MZ7-mel cell growth in a cell viability assay.

NB13 = format: functional, cell-based, Homo sapiens; settings: Homo sapiens, NB13;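 note: cell viability readout measuring growth inhibition of human NB13 cells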
Description: SANGER: Inhibition of human NB13 cell growth in a cell viability assay.

NCI-H1838 = format: functional, cell-based, Homo sapiens; settings: Homo sapiens, NCI-H1838;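 note: growth inhibition of NCI-H1838 cells, determined with a cell viability readout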
Description: SANGER: Inhibition of human NCI-H1838 cell growth in a cell viability assay.

NCI-H226 = format: functional, cell-based, Homo sapiens; settings: Homo sapiens, NCI-H226;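 note: cell viability read-out used to gauge growth inhibition of the cells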
Description: SANGER: Inhibition of human NCI-H226 cell growth in a cell viability assay.

NCI-H23 = format: functional, cell-based, Homo sapiens; settings: Homo sapiens, NCI-H23;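 note: cell viability assay measuring growth inhibition of NCI-H23 cells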
Description: SANGER: Inhibition of human NCI-H23 cell growth in a cell viability assay.

NH-12 = format: functional, cell-based, Homo sapiens; settings: Homo sapiens, NH-12;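 note: growth inhibition of NH-12 cells, read out with a cell viability assay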
Description: SANGER: Inhibition of human NH-12 cell growth in a cell viability assay.

QIMR-WIL = format: functional, cell-based, Homo sapiens; settings: Homo sapiens, QIMR-WIL;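 note: growth inhibition of QIMR-WIL cells, read out with a cell viability assay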
Description: SANGER: Inhibition of human QIMR-WIL cell growth in a cell viability assay.

RH-1 = format: functional, cell-based, Homo sapiens; settings: Homo sapiens, RH-1;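 note: growth inhibition of human RH-1 cells, read out with a cell viability assay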
Description: SANGER: Inhibition of human RH-1 cell growth in a cell viability assay.

SF-126 = format: functional, cell-based, Homo sapiens; settings: Homo sapiens, SF-126;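 note: growth inhibition of human SF126 cells, read out with a cell viability assay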
Description: SANGER: Inhibition of human SF126 cell growth in a cell viability assay.

SHP77 = format: functional, cell-based, Homo sapiens, SHP-77; settings: Homo sapiens, SHP77;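 note: growth inhibition of human SHP-77 cells measured by a cell viability assay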
Description: SANGER: Inhibition of human SHP-77 cell growth in a cell viability assay.

SJSA-1 = format: functional, cell-based, Homo sapiens; settings: Homo sapiens, SJSA-1;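 note: growth inhibition of human SJSA-1 cells, read out through a cell viability measurement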
Description: SANGER: Inhibition of human SJSA-1 cell growth in a cell viability assay.

SK-LMS-1 = format: functional, cell-based, Homo sapiens; settings: Homo sapiens, SK-LMS-1;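 note: growth inhibition of human SK-LMS-1 cells, read out with a cell viability assay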
Description: SANGER: Inhibition of human SK-LMS-1 cell growth in a cell viability assay.

SK-N-DZ = format: functional, cell-based, Homo sapiens; settings: Homo sapiens, SK-N-DZ; read-out: IC50;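 note: growth inhibition of the cancer cell line, read out through a viability assay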
Description: SANGER: Inhibition of human SK-N-DZ cell growth in a cell viability assay.

SK-PN-DW = format: functional, cell-based, Homo sapiens; settings: Homo sapiens, SK-PN-DW;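 note: growth inhibition measured with a viability assay on these cells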
Description: SANGER: Inhibition of human SK-PN-DW cell growth in a cell viability assay.

SW684 = format: functional, cell-based, Homo sapiens; settings: Homo sapiens, SW684; read-out: IC50;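 note: growth inhibition of human SW684 cells, measured by a cell viability assay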
Description: SANGER: Inhibition of human SW684 cell growth in a cell viability assay.

SW 962 = format: functional, cell-based, Homo sapiens; settings: Homo sapiens, SW 962;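 note: growth inhibition of human SW962 cells, read out by a cell viability assay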
Description: SANGER: Inhibition of human SW962 cell growth in a cell viability assay.

TE-1 = format: functional, cell-based, Homo sapiens; settings: Homo sapiens, TE-1;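 note: growth inhibition of the human TE-1 cell line, read out with a cell viability assay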
Description: SANGER: Inhibition of human TE-1 cell growth in a cell viability assay.

A101D = format: functional, cell-based, Homo sapiens; settings: Homo sapiens, A101D;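 note: growth inhibition of the cell line, measured with a viability assay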
Description: SANGER: Inhibition of human A101D cell growth in a cell viability assay.

A253 cell line = format: functional, cell-based, Homo sapiens; settings: Homo sapiens, A253;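 note: growth inhibition of A253 cells, read out with a cell viability assay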
Description: SANGER: Inhibition of human A253 cell growth in a cell viability assay.

ACN = format: functional, cell-based, Homo sapiens; settings: Homo sapiens, ACN;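 note: growth inhibition of the human ACN cell line, read out via cell viability testing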
Description: SANGER: Inhibition of human ACN cell growth in a cell viability assay.

AM-38 = format: functional, cell-based, Homo sapiens; settings: Homo sapiens, AM-38;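 note: growth inhibition of AM-38 cells of human origin, read out by a cell viability assay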
Description: SANGER: Inhibition of human AM-38 cell growth in a cell viability assay.

BE-13 = format: functional, cell-based, Homo sapiens; settings: Homo sapiens, BE-13;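 note: growth inhibition of human BE-13 cells, measured with a cell viability assay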
Description: SANGER: Inhibition of human BE-13 cell growth in a cell viability assay.

BV-173 = format: functional, cell-based, Homo sapiens; settings: Homo sapiens, BV-173
Description: SANGER: Inhibition of human BV-173 cell growth in a cell viability assay.

C2BBe1 = format: functional, cell-based, Homo sapiens; settings: Homo sapiens, C2BBe1;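 note: growth inhibition of C2BBe1 cells, read out through a viability assay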
Description: SANGER: Inhibition of human C2BBe1 cell growth in a cell viability assay.

TE-5 = format: functional, cell-based, Homo sapiens; settings: Homo sapiens, TE-5;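 note: inhibition of cell growth, read out by a cell viability assay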
Description: SANGER: Inhibition of human TE-5 cell growth in a cell viability assay.

CCRF-CEM = format: functional, cell-based, Homo sapiens; settings: Homo sapiens, CCRF-CEM;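 note: inhibition of CCRF-CEM cell growth, measured by a cell viability assay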
Description: SANGER: Inhibition of human CCRF-CEM cell growth in a cell viability assay.

Cc1ccc(C(=O)Nc2ccc(CN3CCN(C)CC3)c(C(F)(F)F)c2)cc1C#Cc1cnc2cccnn12 [PONATINIB]
IC50 (DSH1): > 512 nM | IC50 (ES1): > 512 nM | IC50 (ES3): > 512 nM | IC50 (EW-18): > 512 nM | IC50 (EOL1): < 2 nM | IC50 (GI-1): > 512 nM | IC50 (HAL-01): > 512 nM | IC50 (HD-MY-Z): > 512 nM | IC50 (IA-LM): > 512 nM | IC50 (IST-MES1): 268 nM | IC50 (JAR): > 512 nM | IC50 (KE-37): > 512 nM | IC50 (KG-1): 32.9 nM | IC50 (KLE): > 512 nM | IC50 (KM12): 97.4 nM | IC50 (L-363): > 512 nM | IC50 (LAMA-84): < 2 nM | IC50 (LOX IMVI): > 512 nM | IC50 (LS-513): > 512 nM | IC50 (Lu-65): > 512 nM | IC50 (MFM-223): > 512 nM | IC50 (MLMA): 90.6 nM | IC50 (MOLT-4): > 512 nM | IC50 (MPP-89): 169 nM | IC50 (MZ7-mel): > 512 nM | IC50 (NB13): > 512 nM | IC50 (NCI-H1838): > 512 nM | IC50 (NCI-H226): > 512 nM | IC50 (NCI-H23): > 512 nM | IC50 (NH-12): > 512 nM | IC50 (QIMR-WIL): 334 nM | IC50 (RH-1): > 512 nM | IC50 (SF-126): 171 nM | IC50 (SHP77): > 512 nM | IC50 (SJSA-1): > 512 nM | IC50 (SK-LMS-1): > 512 nM | IC50 (SK-N-DZ): > 512 nM | IC50 (SK-PN-DW): > 512 nM | IC50 (SW684): > 512 nM | IC50 (SW 962): > 512 nM | IC50 (TE-1): > 512 nM | IC50 (A101D): > 512 nM | IC50 (A253 cell line): > 512 nM | IC50 (ACN): 349 nM | IC50 (AM-38): > 512 nM | IC50 (BE-13): 2.59 nM | IC50 (BV-173): > 512 nM | IC50 (C2BBe1): > 512 nM | IC50 (TE-5): > 512 nM | IC50 (CCRF-CEM): > 512 nM

COC(=O)[C@H](CCSC)NC(=O)c1ccc(NC[C@@H](N)CS)cc1-c1ccccc1
IC50 (DSH1): > 1020 nM | IC50 (ES1): > 1020 nM | IC50 (ES3): > 1020 nM | IC50 (EW-18): > 1020 nM | IC50 (EOL1): > 1020 nM | IC50 (GI-1): > 1020 nM | IC50 (HAL-01): > 1020 nM | IC50 (HD-MY-Z): > 1020 nM | IC50 (IA-LM): 955 nM | IC50 (IST-MES1): > 1020 nM | IC50 (JAR): > 1020 nM | IC50 (KE-37): > 1020 nM | IC50 (KG-1): > 1020 nM | IC50 (KLE): > 1020 nM | IC50 (KM12): > 1020 nM | IC50 (L-363): > 1020 nM | IC50 (LAMA-84): > 1020 nM | IC50 (LOX IMVI): > 1020 nM | IC50 (LS-513): > 1020 nM | IC50 (Lu-65): > 1020 nM | IC50 (MFM-223): > 1020 nM | IC50 (MLMA): > 1020 nM | IC50 (MOLT-4): > 1020 nM | IC50 (MPP-89): > 1020 nM | IC50 (MZ7-mel): > 1020 nM | IC50 (NB13): > 1020 nM | IC50 (NCI-H1838): > 1020 nM | IC50 (NCI-H226): > 1020 nM | IC50 (NCI-H23): > 1020 nM | IC50 (NH-12): > 1020 nM | IC50 (QIMR-WIL): > 1020 nM | IC50 (RH-1): > 1020 nM | IC50 (SF-126): > 1020 nM | IC50 (SHP77): > 1020 nM | IC50 (SJSA-1): > 1020 nM | IC50 (SK-LMS-1): > 1020 nM | IC50 (SK-N-DZ): > 1020 nM | IC50 (SK-PN-DW): > 1020 nM | IC50 (SW684): > 1020 nM | IC50 (SW 962): > 1020 nM | IC50 (TE-1): > 1020 nM | IC50 (A101D): > 1020 nM | IC50 (A253 cell line): > 1020 nM | IC50 (ACN): > 1020 nM | IC50 (AM-38): > 1020 nM | IC50 (BE-13): > 1020 nM | IC50 (BV-173): > 1020 nM | IC50 (C2BBe1): > 1020 nM | IC50 (TE-5): > 1020 nM | IC50 (CCRF-CEM): > 1020 nM
